Results taken from patent publication US10933075B2, “Materials and methods for suppressing and/or treating bacterial infections and related symptoms” (Indiana University Research and Technology Corporation, priority 2017, dated 2021).

How the values were obtained:
S. aureus USA300 = assay: Murine model of peritoneal infection (survival, anti-virulence effect); type: in vivo, mice; settings: for anti-virulence effect: mice i.p. infected with S. aureus USA300, 50 μg i.p. once every day for 7 days, from one hour post infection; for anti-virulence activity against S. aureus infection in mice (percent survival): S. aureus 2×10^8 CFU i.p., n=10-18 (FIGS. 4-6); for anti-virulence effect, confirmation by repeating the mouse experiment: repeat of the mouse experiment; for in vivo efficacy, dose dependence: administered after infection for 7 days (FIG. 7)
Procedure: FIG. 4. Effect of Streptozotocin on survival. […] Open circles represent percent survival of treated mice (i.e., steptozotocin) after the indicated period. Closed circles represent percent survival of untreated mice (i.e., control). S. aureus (2×10^8 CFU) were i.p. injected into mice (n=10-18).
In this model, mice were i.p. infected with S. aureus USA300. One hour post infection, the test compounds were administered via i.p. injection once every day for 7 days.
To determine the minimal dosage of the compounds for their protective effect, a different amount of the compounds (0-100 μg) were administered after S. aureus infection for 7 days as described above.
The biological half-life of streptozotocin is about 35-40 min. […] Although we administered the compounds every day for 7 days, due to their short half-lives, it is likely that S. aureus cells were exposed to the compounds only briefly. […] To examine the hypothesis, after 2 h post infection with S. aureus, we administered the compounds only once (25 μg for streptozotocin and floxuridine; 50 μg for doxorubicin) and watched the infected mice for 7 days.

Staphylococcus aureus = assay: Effect on growth of Staphylococcus aureus; type: cell-based; settings: grown in TSB for 3 h, various concentrations (FIG. 3A)
Procedure: (§1) FIG. 3A. Graph illustrating the effect of three compounds on growth of Staphylococcus aureus. Cells were grown in TSB for 3 hours in the presence of the compounds (e.g., Streptozotocin, Floxuridine, and Doxorubicin) using various concentrations as indicated.
(§2) In the library screening, S. aureus strain USA300 was grown with pYJ-P1-GFP in the presence of 10 μM test compound for 3 hours. Then the effects of the each drug on growth and GFP expression were measured. In the primary screening, about 9,000 test compounds (3,000 FDA-approved drugs, 6,000 DCL library compounds) were tested.
(§3) Referring now to FIGS. 3A and 3B, the effects of the three compounds on growth (A) and Sae activity (B) of Staphylococcus aureus were measured. The cells were grown in TSB for 3 h in the presence of the compounds with various concentrations as indicated.

[1] = tested on: SaeRS two component system (P1 promoter); assay: pYJ-P1-GFP reporter, Sae activity (P1 promoter activity); type: cell-based, S. aureus strain USA300; settings: grown in TSB for 3 h, various concentrations (FIG. 3B)
Procedure: as §1, with “3B.” for “3A.”, “Sae activity” for “growth”, “indicated. The P1 promoter has two SaeR binding sites and its activity is an excellent indicator for the Sae activity.” for “indicated.”
The sae operon consists of four genes (saeP, saeQ, saeR, and saeS), and the two promoters P1 and P3. The P1 promoter resides in the front of the very first gene saeP and can transcribe all four genes. The P1 promoter has two SaeR binding sequences (SBSs). The P1 promoter in front of the sae operon is well characterized target of the SaeRS two component system. Here, the reporter plasmid pYJ-P1-GFP was used in the library screening and the expression level of GFP was interpreted as the Sae activity.
as §2, §3

[2] = in vivo; cited from earlier work
[3] = tested on: Agr quorum sensing system, Arl two-component system, SarA DNA binding protein; assay: qRT-PCR of agrC, arlS, sarA transcription normalized by gyrB; type: cell-based, S. aureus USA300; settings: 1 μg/mL (=3.8 μM for streptozotocin, 4 μM for floxuridine), 3 h (FIG. 9)
Procedure: FIG. 9. Streptozotocin (SZ) and floxuridine (FU) repress other signalling systems critical for staphylococcal virulence. The transcription level of the indicated genes was analyzed by qRT-PCR and normalized by the transcription level of gyrB. agrC, the gene of the sensor kinase of the Agr quorum sensing system; arlS, the gene of the sensor kinase of the Arl two componenet system; sarA, the gene of the DNA binding protein SarA; NT, no treatment.
The virulence of S. aureus is thought to be controlled by multiple signaling systems. Along with the Sae signaling system, the Agr quorum sensing system, Arl two-component system, and SarA DNA binding protein are known to contribute to staphylococcal virulence. To explain the high in vivo efficacy of streptozotocin and floxuridine, S. aureus USA300 was treated with 1 μg/mL (=3.8 μM for streptozotocin, 4 μM for floxuridine) for 3 h, purified total RNA and carried out qRT-PCR.

Row | Compound | anti-virulence effect (S. aureus USA300) | growth of Staphylococcus aureus (Staphylococcus aureus) | anti-virulence activity against S. aureus infection in mice (percent survival) (S. aureus USA300) | anti-virulence effect, confirmation by repeating the mouse experiment (S. aureus USA300) | Sae activity (P1 promoter activity) [1] | transcription level of agrC, arlS, sarA (signaling systems critical for virulence) [3] | other results
1 | CC(=O)[C@H]1CC[C@H]2[C@@H]3CC=C4C[C@@H](OC(=O)CCC(=O)O)CC[C@]4(C)[C@H]3CC[C@]12C [Pregnenolone succinate] | anti-virulence effect | – | – | – | – | – | –
2 | COc1cccc2c1C(=O)c1c(O)c3c(c(O)c1C2=O)C[C@@](O)(C(=O)CO)C[C@@H]3O[C@H]1C[C@H](N)[C@H](O)[C@H](C)O1 [Doxorubicin] | anti-virulence effect | reduced growth | exhibited anti-virulence activity | significant anti-virulence effect | reduced P1 promoter activity | – | –
3 | O=C1OC2(c3ccccc31)c1cc(I)c(O)c(I)c1Oc1c2cc(I)c(O)c1I [Erythrosine sodium] | anti-virulence effect | – | – | – | – | – | –
4 | O=c1[nH]c(=O)n([C@H]2C[C@H](O)[C@@H](CO)O2)cc1F [Floxuridine] | anti-virulence effect | reduced growth | exhibited anti-virulence activity | significant anti-virulence effect | reduced P1 promoter activity | inhibit multiple signaling systems | catabolism [2]: rapidly catabolized to 5′fluorouracil; in vivo efficacy, dose dependence (S. aureus USA300; 10 μg): statistically significant in vivo efficacy
5 | O=c1[nH]cc(F)c(=O)[nH]1 [5-FU, 5′fluorouracil] | – | – | – | – | – | – | half-life [2]: 8 to 14 min
6 | CN(N=O)C(=O)NC1C(O)[C@H](O)C(CO)O[C@H]1O (stereo partly shown) [Streptozotocin] | anti-virulence effect | reduced growth | exhibited anti-virulence activity | significant anti-virulence effect | reduced P1 promoter activity | inhibit multiple signaling systems | biological half-life [2]: 35-40 min; in vivo efficacy, dose dependence (S. aureus USA300; 5 μg): statistically significant in vivo efficacy; in vivo efficacy, dose dependence (S. aureus USA300; 10-100 μg): comparable in vivo efficacy
